Series [1] in a line: release/dissolution test of pseudoephedrine particles in distilled water, quantitative determination by UV spectrophotometry. The note with it: ambient temperature, FIG. 18. The series is classed as physicochemical.
The nature of series [2]: release/dissolution test of BSA particles in distilled water, quantitative determination by UV spectrophotometry. The series is classed as physicochemical. The note with it: ambient temperature, FIG. 19. The protocol:
This time, a heat-sensitive protein, BSA (Bovine Serum Albumin), the mean diameter of which, measured by particle size determination, is 85.6 μm, is coated according to FIG. 2 of the process according to the present invention. 3 g of BSA are placed in the system for injection by CO2 and 3 g of Precirol® are placed in the autoclave. The supercritical medium conditions are 110 bar and 50° C. for a dissolution time of 30 minutes. The pressure for injection of the BSA particles is 80 bar. Once coinjection has been carried out, the coated particles are quantitatively determined by UV spectrophotometry (FIG. 19). While the crude BSA is completely dissolved in distilled water at ambient temperature after 5 minutes, the protein coated with Precirol® (BSA 1 test) for its part takes close to 30 minutes in order to be completely dissolved in distilled water at ambient temperature.

With `CN[C@@H](C)[C@@H](O)c1ccccc1` [crude pseudoephedrine, pseudoephedrine], the “time to complete dissolution” value in series [1] is 10 min. Consider “crude BSA: heat-sensitive protein, BSA (Bovine Serum Albumin), uncoated”, for which the “time to complete dissolution” value in series [2] was determined as 5 min.

The values are drawn from patent US20080102275A1, “Method For Coating Powders” (priority 2004, published 2008).
